Results as given in US9676811B2, “Testosterone derivatives with a carboxyalkyl substitution in position 3 and use thereof for the production of labelled steroids for determining the concentration of testosterone in a biological sample” (BIOMERIEUX, priority 2012, dated 2017).

Assays:
Assay type in all cases: binding
[1] = system: sheep anti-testosterone monoclonal antibody clone 3.6A3 (Ab3); experiment: Microplate competitive testosterone immunoassay, Ab3 + Conjugate 2 of the invention, streptavidin-peroxidase/TMB; details: for B/B0% / OD450-OD630: conjugate 0.2 ng/well
Procedure: 100 μl/well of the mouse anti-goat Fe IgG monoclonal antibody (clone 9A4A5, bioMerieux) diluted to 10 μg/ml in PBS buffer 1× is distributed in a 96-well microplate (Nunc Maxisorp F96). The microplate is incubated overnight at room temperature in order to obtain adsorption of the antibody. The microplate is emptied, and then 300 μl/well of passivating buffer (buffer Tris 0.2 M pH 6.2) containing a saturating agent of the protein or peptide type, and the sheep anti-testosterone monoclonal antibody clone 3.6A3 (Ab3-bioVentix) diluted to 0.2 μg/ml are added. The microplate is incubated for 1 h at 37° C. Three washings are carried out with TBS (Tris buffered saline)-Tween®-20 0.05%. The range points used in example 10 are diluted to 1/2 in Tris buffer; 100 μl of these dilutions are distributed in the wells of the plate. After incubation for 1 h at 37° C., the wells are emptied and 0.2 ng/well of Conjugate 2 of the invention testosterone-3β-EMC-DAP-biotin in Tris buffer is added. The reaction with the conjugate is carried out for 15 minutes at 37° C., and is followed by 3 washings. 100 μl/well of streptavidin-peroxidase solution (Jackson Immunoresearch Cat. No. 016-30-084) diluted to 1/20 000 in TBS-Tween®-20 0.05%, BSA 2% is added and the microplate is incubated for 30 min at 37° C. After 3 washings, 100 μl/well of the 1-step Ultra TMB substrate (Thermo Scientific, Cat. No. 34028) is added and the microplate is incubated for 5 min at room temperature, away from the light. The reaction is then stopped by adding 100 μl of 2M sulfuric acid. The optical density (OD) at 450 nm and at 630 nm is measured in a microplate reader. For each well, the optical density at 630 nm is subtracted from the optical density at 450 nm.

[2] = system: anti-testosterone antibody Ab3 (sheep monoclonal IgG, clone testo3.6A3); experiment: VIDAS® competitive testosterone immunoassay, format Ab3 + Conjugate 1 of the invention; details: for B/B0% / Signal (RFV): conjugate 2.5 ng/ml
Procedure: (§1) Competition then takes place between the testosterone present in the sample and the testosterone derivative of the conjugate for the sites of the anti-testosterone antibody fixed on the cone. The washing steps are carried out with the buffer Tris-NaCl (0.05 mol/l) pH 7.4 or with diethanolamine (1.1 mol/1) pH 9.8 and make it possible to remove the compounds that are not fixed. During the final development step, the substrate 4-methylombelliferyl phosphate is aspirated and then introduced into the cone; the enzyme of the conjugate catalyzes the reaction of hydrolysis of this substrate in 4-methylombelliferone, and the fluorescence emitted from the latter is measured at 450 nm. The value of the fluorescence signal is inversely proportional to the concentration of the testosterone present in the sample. This concentration is calculated relative to a calibration curve.
(§2) For the other assays, we used the reagents of the VIDAS® testosterone kit (Cat. No 30418) and the assay protocol given in the instructions with the kit, with the following modifications: • Cones were sensitized with other anti-testosterone antibodies: 2 mouse monoclonal immunoglobulins G (IgG), the clones 19E10H6 and 15H9H10 (bioMerieux), which will be called Ab1 and Ab2 respectively, and 1 sheep monoclonal IgG, the clone testo3.6A3 (Bioventix), which will be called Ab3. As in the cone of the format of the reference assay, the anti-testosterone antibodies were captured by anti-species polyclonal antibodies adsorbed on the cone beforehand. It is a sheep anti-mouse IgG polyclonal antibody for Ab1 and Ab2, and a donkey anti-sheep IgG polyclonal antibody for Ab3. The anti-species antibodies are diluted to a concentration between 1 and 12 μg/ml in the sensitizing solution. After incubation for 6 h at +18/25° C., washing is carried out with saline solution. Then the solution of anti-testosterone antibodies containing a saturating agent of the protein or peptide type is added (concentration of the antibody: 0.01-0.2 μg/ml). Sensitization/passivation is continued at +18/25° C. overnight. Then the cones are emptied and dried. • The cones sensitized with the antibody Ab1 are tested with the VIDAS® conjugate, diluted to 1/2.5 for the tests with the monoclonal antibody. The cones sensitized with the antibodies Ab2 and Ab3 are tested with conjugate 1 of the invention prepared in example 9. This last-mentioned conjugate is used at a concentration of 3 ng/ml for the tests with the cones sensitized with the antibody Ab2 and 2.5 ng/ml for the cones sensitized with the antibody Ab3. • The conversion to dose is performed based on a standard 10-point range manufactured by supplementing woman's serum with testosterone in ethanolic solution. The nominal concentrations of each of the points are: 0.001 ng/ml-0.03 ng/ml-0.18 ng/ml-0.41 ng/ml-0.76 ng/ml-1.29 ng/ml-1.91 ng/ml-3.82 ng/ml-7.48 ng/ml-11.55 ng/ml. • The sample volume taken for each assay is 200 μl.
(§3) The standard range was measured with each assay format. Table 1 below summarizes the results obtained as RFV signal (relative fluorescence value) and B/B0% ratio, for the dilutions of the standard range. The ratio B/B0 is the signal obtained for the range point tested divided by the signal obtained for the range point 0.001 ng/ml of testosterone, multiplied by 100.

[3] = system: anti-testosterone antibody Ab2 (mouse monoclonal IgG, clone 15H9H10); experiment: VIDAS® competitive testosterone immunoassay, format Ab2 + Conjugate 1 of the invention; details: for B/B0% / Signal (RFV): conjugate 3 ng/ml
Procedure: as §1, §2, §3
Secondly, to confirm that the format Ab2+Conjugate 1 of the invention is far more sensitive than the reference format REF, VIDAS® Testosterone kit, for which the measurement range recommended in the instructions extends from 0.1 to 13 ng/ml, these two formats were compared against serum samples obtained from the Etablissements Français du Sang (the French National Blood Service). These were 4 samples collected from women (codes with F), for whom the serum testosterone level is below 1 ng/ml, and 2 samples collected from men (codes with M). […]

[4] = testosterone 0.001 ng/ml range point (diluted to 1/2)
[5] = testosterone 0.03 ng/ml range point (diluted to 1/2)
[6] = testosterone 0.18 ng/ml range point (diluted to 1/2)
[7] = testosterone 0.41 ng/ml range point (diluted to 1/2)
[8] = testosterone 0.76 ng/ml range point (diluted to 1/2)
[9] = testosterone 1.29 ng/ml range point (diluted to 1/2)
[10] = testosterone 3.82 ng/ml range point (diluted to 1/2)
[11] = testosterone 11.55 ng/ml range point (diluted to 1/2)
[12] = testosterone 0.001 ng/ml range point
[13] = testosterone 0.03 ng/ml range point
[14] = testosterone 0.18 ng/ml range point
[15] = testosterone 0.41 ng/ml range point
[16] = testosterone 0.76 ng/ml range point
[17] = testosterone 1.29 ng/ml range point
[18] = testosterone 1.91 ng/ml range point
[19] = testosterone 3.82 ng/ml range point
[20] = testosterone 7.48 ng/ml range point
[21] = testosterone 11.55 ng/ml range point

**Q.** What does the source list for `CC12CC[C@H](OCC(=O)NCCCNC(=O)CCCCC3SCC4NC(=O)NC43)C=C1CCC1C2CCC2(C)C(O)CCC12` (stereo partly drawn) [Conjugate 2 of the invention, 17-β-Hydroxy-3-β-Carboxymethoxyandrost-4-ene/Biotin]?
**A.** character of the testosterone assay range versus format Ab2+Conjugate 1 on VIDAS® ([1]; FIG. 2): comparable; sensitivity of the microplate assay (comparison) ([1]; FIG. 2): more sensitive than the VIDAS® assays using the VIDAS® Conjugate; B/B0% [1, 4]: 100%; OD450-OD630 [1, 4]: 2.52; B/B0% [1, 5]: 83%; OD450-OD630 [1, 5]: 2.10; B/B0% [1, 6]: 74%; OD450-OD630 [1, 6]: 1.88; B/B0% [1, 7]: 64%; OD450-OD630 [1, 7]: 1.61; B/B0% [1, 8]: 54%; OD450-OD630 [1, 8]: 1.36; B/B0% [1, 9]: 40%; OD450-OD630 [1, 9]: 1.00; B/B0% [1, 10]: 17%; OD450-OD630 [1, 10]: 0.42; B/B0% [1, 11]: 7%; OD450-OD630 [1, 11]: 0.17

**Q.** Which “sensitivity of the assay format (comparison of formats)” value ([2]; FIG. 1) does the source give for “17β-Hydroxy-3β-Carboxymethoxyandrost-4-ene/Alkaline Phosphatase [Conjugate 1 of the invention]” here?
**A.** most sensitive

**Q.** And the “testosterone concentration giving a 50% decrease in the signal” value ([2]; from graph of FIG. 1)?
**A.** about 0.2 ng/ml

**Q.** And the B/B0% [2, 12]?
**A.** 100%

**Q.** What about the “Signal (RFV)” value [2, 12] of the same molecule?
**A.** 3209 RFV

**Q.** What about the B/B0% [2, 13] of the same molecule?
**A.** 78%

**Q.** What about the “Signal (RFV)” value [2, 13] of the same molecule?
**A.** 2492 RFV

**Q.** What about the B/B0% [2, 14] of the same molecule?
**A.** 53%

**Q.** What about the “Signal (RFV)” value [2, 14] of the same molecule?
**A.** 1700 RFV

**Q.** What about the B/B0% [2, 15] of the same molecule?
**A.** 44%

**Q.** What about the “Signal (RFV)” value [2, 15] of the same molecule?
**A.** 1403 RFV

**Q.** What about the B/B0% [2, 16] of the same molecule?
**A.** 40%

**Q.** What about the “Signal (RFV)” value [2, 16] of the same molecule?
**A.** 1286 RFV

**Q.** And the B/B0% [2, 17]?
**A.** 30%

**Q.** What about the “Signal (RFV)” value [2, 17] of the same molecule?
**A.** 960 RFV

**Q.** And the B/B0% [2, 18]?
**A.** 31%

**Q.** What about the “Signal (RFV)” value [2, 18] of the same molecule?
**A.** 990 RFV

**Q.** And the B/B0% [2, 19]?
**A.** 20%

**Q.** And the “Signal (RFV)” value [2, 19]?
**A.** 644 RFV

**Q.** What about the B/B0% [2, 20] of the same molecule?
**A.** 12%

**Q.** And the “Signal (RFV)” value [2, 20]?
**A.** 380 RFV

**Q.** And the B/B0% [2, 21]?
**A.** 6%

**Q.** What about the “Signal (RFV)” value [2, 21] of the same molecule?
**A.** 205 RFV

**Q.** What about the “sensitivity of the assay format (comparison of formats)” value ([3]; FIG. 1) of the same molecule?
**A.** slightly more sensitive than the reference format

**Q.** And the B/B0% [3, 12]?
**A.** 100%

**Q.** What about the “Signal (RFV)” value [3, 12] of the same molecule?
**A.** 4077 RFV

**Q.** What about the B/B0% [3, 13] of the same molecule?
**A.** 86%

**Q.** What about the “Signal (RFV)” value [3, 13] of the same molecule?
**A.** 3490 RFV

**Q.** And the B/B0% [3, 14]?
**A.** 72%

**Q.** And the “Signal (RFV)” value [3, 14]?
**A.** 2935 RFV

**Q.** And the B/B0% [3, 15]?
**A.** 62%

**Q.** What about the “Signal (RFV)” value [3, 15] of the same molecule?
**A.** 2527 RFV

**Q.** What about the B/B0% [3, 16] of the same molecule?
**A.** 55%

**Q.** And the “Signal (RFV)” value [3, 16]?
**A.** 2238 RFV

**Q.** What about the B/B0% [3, 17] of the same molecule?
**A.** 46%

**Q.** What about the “Signal (RFV)” value [3, 17] of the same molecule?
**A.** 1880 RFV

**Q.** And the B/B0% [3, 18]?
**A.** 42%

**Q.** And the “Signal (RFV)” value [3, 18]?
**A.** 1729 RFV

**Q.** What about the B/B0% [3, 19] of the same molecule?
**A.** 31%

**Q.** And the “Signal (RFV)” value [3, 19]?
**A.** 1264 RFV

**Q.** And the B/B0% [3, 20]?
**A.** 22%

**Q.** What about the “Signal (RFV)” value [3, 20] of the same molecule?
**A.** 905 RFV

**Q.** And the B/B0% [3, 21]?
**A.** 16%

**Q.** What about the “Signal (RFV)” value [3, 21] of the same molecule?
**A.** 632 RFV
